One data set concerns plants. The conditions noted are these: Ruhland et al. (2002); cited from earlier work.
Data set [1] is described as follows: Hygroscopicity of solid L-glufosinate forms in contact with ambient air. The data set is classed as physicochemical. The settings on record: contact with ambient air in the laboratory; compared with non-crystalline forms. From the text: L-glufosinate produced in a stable solid form is highly desirable for commercial manufacture. Some forms of solid L-glufosinate are hygroscopic, and therefore extra measures must be taken to eliminate contact between these solid L-glufosinate forms and water vapor. […] Several crystalline forms of L-glufosinate are disclosed in WO 2019/018406, and two of these forms (indicated as “Form A” and “Form B”) have now been identified as monohydrate crystals of L-glufosinate ammonium.

The nature of data set [2]: Particle size measurement (Dv90, volumetric distribution). Type of data set: physicochemical. The source says: The size range of crystalline L-glufosinate ammonium monohydrate particles obtained by using the methods provided herein is convenient for use in formulations. In some embodiments, the crystals are mixed with water and other formulation ingredients to form an herbicidal product. In some embodiments, 90% of the crystalline L-glufosinate ammonium particles are less than about 350 microns as determined by volumetric distribution measurement basis (i.e., “Dv90”). For example, the Dv90 of the particles can be less than about 350 microns or less than about 300 microns or less than about 250 microns or less than about 200 microns or less than about 150 microns or less than about 125 microns or less than about 100 microns or less than about 75 microns or less than about 50 microns or less than about 25 microns. […]
L-glufosinate ammonium starting material (50 g, 77% total L-glufosinate ammonium, 7.3% ammonium glutamate) was added to 35.0 g of 45:55 (w:w) methanol:water. […] The crystals were analyzed by X-ray powder diffraction and the resulting pattern was consistent with that of L-glufosinate ammonium monohydrate Form B, however several peaks consistent with L-glufosinate ammonium monohydrate Form A were present.

The test system of data set [3] is glutamine synthetase enzyme in plants. The conditions noted are these: leads to plant death; cited from earlier work.
The nature of data set [4]: DAAO enzyme kinetics assay (HRP/TBHBA/4-AAP dye, Michaelis Menten, Vmax). The data set is classed as biochemical. The conditions noted are these: 30° C., 460 nm, measurement at 15 minutes, final DAAO 5 μg/mL, racemic glufosinate substrate, pH 8.0 potassium phosphate buffer.
Experimental: The following dye stock solutions were prepared: a 20 mg/mL stock solution of 2,4,6-tribromo-3-hydroxybenzoic acid (TBHBA) in DMSO; and a 100 mg/mL stock solution of 4-aminoantipyrine (4-AAP) in water. The following enzyme stock solution was prepared: a 1 mg/mL stock solution of horseradish peroxide (HRP) type 6 in a pH 8.0 potassium phosphate buffer. The following substrate stock solution was prepared: varying concentrations of racemic glufosinate in a pH 8.0 potassium phosphate buffer such that the initial reaction concentrations of racemic glufosinate were 0, 1, 10, 100, 250, and 500 nM. DAAO enzymes were made in E. coli which were lysed and the cell free extracts freeze dried. Enzyme amounts in the cell free extracts were quantified using SDS-PAGE and staining by Coomassie Blue.
Mix A is a combination of the substrate and HRP enzyme. Solutions were prepared for each substrate concentration to be assayed using reaction buffer. The solutions were two times the final substrate concentration and 0.2 mg/mL for the HRP solution.
Mix B is a dye mixture. To 5 mL of reaction buffer was added 120 μL of TBHBA solution and 400 μL of 4-AAP solution.
Mix C is an enzyme mixture. A 0.02 mg/mL solution of DAAO in reaction buffer was prepared. […]
The enzyme kinetics were measured as described above, plotted on a Michaelis Menten graph, and used to calculate Vmax.

Consider `CP(=O)(O)CC[C@@H](N)C(=O)O` [D-glufosinate], for which the herbicidal activity entry with plants was “essentially no herbicidal activity”.
As for `CP(=O)(O)CC[C@H](N)C(=O)O.N.O` [Form A, L-glufosinate ammonium monohydrate], the hygroscopicity entry in data set [1] was “low hygroscopicity”.
On to `CP(=O)(O)CC[C@H](N)C(=O)O.N.O` [L-glufosinate ammonium monohydrate], for which the Dv90 particle size in data set [2] (Example 9, crystallized with 0.4 M ammonium hydroxide) turned out to be 70.7 microns; in data set [2] (Example 10, crystallized without ammonium hydroxide), 102 microns.
`CP(=O)(O)CC[C@H](N)C(=O)O` [L-glufosinate]: the “inhibition of glutamine synthetase enzyme” value in data set [3] is reported as “inhibits”.
With `CP(=O)(O)CC[C@H](N)C(=O)O` [amorphous L-glufosinate solids, L-glufosinate], the hygroscopicity result in data set [1] is reported as “particularly hygroscopic”.
Take `CP(=O)(O)CC[C@H](N)C(=O)O` [crystalline L-glufosinate P free acid, L-glufosinate P free acid]: the hygroscopicity entry in data set [1] was “significantly lower”.

B1: Mut846: variant DAAO enzyme, sequence provided in SEQ ID NO: 2 (protein)
chain: MASPSNKQIVVLGAGVIGLTTAVKIQEQRGYQVTIIAEILPSDPKSIRYTSHWAGAHHVSLAGEDKLQARVDQETFGVMWEMSAPGGEAEGCFLRQKQVEYYCDKQADPHPLEHMPDFRRLDENSLIPNTVAGIGFTTLTIDTPIYLNYLLSRFLARGGAIVRGSVQHISQVVDGGARVFTGSKSAGVPVDAVIVCAGIGARFLGGVEDKDVYPIRGQTVLLRAPWIRFGRTMSSKDGLYTYIIPRRSGDVIVGGIKVPNDWYPTPRPETTQDILKRGLALCPELAPQSIRDQREPTVDDLRPLVIEEGCGLRPGRKGGIRLEVEWYAKTDGQAPKVPIVHNYGHGGAGFQASWGSASVALELLEKALAQARLAM
modifications: Rhodosporidium toruloides
B1: in data set [4], the Vmax amounted to 5.54 µmol/min/mg.

The values above are taken from patent US12234254B2, “Methods for producing crystalline L-glufosinate ammonium monohydrate” (BASF SE, priority 2019, dated 2025).
